From US7674831B2, “Heterocyclic compounds as sweetener enhancers” (Redpoint Bio Corporation, priority 2006, dated 2010)

What was measured:
Format in all cases: cell-based
human TRPM5 [1] = molecular target: T1, human TRPM5 (Homo sapiens, UniProt Q9NZQ8); experiment: TRPM5 membrane potential dye FLIPR assay in hTRPM5-HEK293 cells, ATP stimulated; conditions: for inhibition at 10 µM: 10 μM compound, 3 μM ATP, read-out: TRPM5 Activity (percent inhibition; enhancement is negative inhibition)
T1 construct: expressed in transfected cells
T1 sequence (Q9NZQ8 1-1165): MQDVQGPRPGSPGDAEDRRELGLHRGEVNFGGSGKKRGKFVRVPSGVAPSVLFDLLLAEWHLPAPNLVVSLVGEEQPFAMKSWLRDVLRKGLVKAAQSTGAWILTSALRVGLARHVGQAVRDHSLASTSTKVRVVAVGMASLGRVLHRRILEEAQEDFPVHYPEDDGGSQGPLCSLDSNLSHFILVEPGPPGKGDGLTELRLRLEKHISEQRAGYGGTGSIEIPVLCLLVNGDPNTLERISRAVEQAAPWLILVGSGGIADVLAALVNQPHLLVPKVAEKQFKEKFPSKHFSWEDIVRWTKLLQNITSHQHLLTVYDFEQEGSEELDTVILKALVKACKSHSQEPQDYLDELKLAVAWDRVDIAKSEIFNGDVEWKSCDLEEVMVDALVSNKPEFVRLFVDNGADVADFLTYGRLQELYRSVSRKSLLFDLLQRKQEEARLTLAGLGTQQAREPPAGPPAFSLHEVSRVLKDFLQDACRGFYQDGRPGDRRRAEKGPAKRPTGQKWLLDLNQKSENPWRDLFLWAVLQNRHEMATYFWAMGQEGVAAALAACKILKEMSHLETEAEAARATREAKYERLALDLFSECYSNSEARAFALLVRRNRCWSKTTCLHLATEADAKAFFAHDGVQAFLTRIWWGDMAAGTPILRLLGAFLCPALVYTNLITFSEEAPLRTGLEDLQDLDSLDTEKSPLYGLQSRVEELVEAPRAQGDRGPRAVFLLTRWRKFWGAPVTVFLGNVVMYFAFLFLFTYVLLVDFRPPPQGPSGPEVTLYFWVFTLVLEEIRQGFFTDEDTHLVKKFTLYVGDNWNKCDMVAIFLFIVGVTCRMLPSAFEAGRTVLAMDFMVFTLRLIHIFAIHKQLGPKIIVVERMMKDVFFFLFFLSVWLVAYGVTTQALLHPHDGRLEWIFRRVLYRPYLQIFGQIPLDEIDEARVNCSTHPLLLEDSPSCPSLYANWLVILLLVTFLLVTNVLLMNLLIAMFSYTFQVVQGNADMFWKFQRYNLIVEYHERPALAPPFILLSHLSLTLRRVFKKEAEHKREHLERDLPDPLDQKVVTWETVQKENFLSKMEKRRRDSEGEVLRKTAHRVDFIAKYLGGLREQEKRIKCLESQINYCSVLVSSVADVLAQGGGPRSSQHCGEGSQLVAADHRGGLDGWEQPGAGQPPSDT
Experimental: The activity of human TRPM5 ion channel was measured in live cells on a fluorescent imaging plate reader (FLIPR). The basis of the assay (shown in FIG. 1) is the calcium-dependent activation of the ion channel which occurs via by activation of a G-protein coupled receptor (GPCR). GPCR activation by an appropriate agonist causes a transient increase in […] Ca^2+ ion concentration which in turn causes the ion channel to open, letting in Na^+ ions. This influx causes a change in the membrane potential of the cell which can be monitored as a change in the fluorescent signal from voltage-dependent (membrane potential) fluorescent dyes.
For the screening assay, the human TRPM5 gene was cloned, put into HEK293 cells, and a stable, high expression clone was used for screening. Cells were grown in standard media at 37° C. The day before screening, the cells were removed from flasks and added to 384 well clear bottom plates (8K cells in 20 μL/well). On the assay day, 20 μL of membrane potential dye (Part No. R8123, Molecular Devices Corp.) was added to the cells and dye was allowed to be taken up, i.e., load, into the cells for 1 hr at 37° C. […] The assay was started by addition of 10 μL of solution from the compound plate into the cell plate. During this process, continuous fluorescent recordings were made simultaneously for all wells. After addition of the compound solution, the tips were automatically washed and a stimulation solution of 3 μM ATP to activate TRPM5 (an agonist for an endogenous purinurgic GPCR), was added to all wells of the cell plate. The height of the response was calculated and percent inhibition or enhancement values, versus negative control wells, was calculated for the test samples. Exemplary results are shown in the upper left graph of FIG. 3.

[2] = tested on: membrane potential response (non-specific ion channel blockers or enhancers); experiment: KCl counterscreen (membrane potential response, 10 mM KCl instead of ATP); conditions: Homo sapiens, 10 μM compound, read-out: KCl Counterscreen (percent inhibition)
Experimental: (§1) Two counterscreen assays were run on separate cell plates utilizing the same cells as described above. In the calcium counterscreen, the cells were loaded with a calcium sensitive dye (Calcium3 Dye, Part no. 8090, Molecular Devices Corp.) and stimulated by ATP to check for compounds that block the GPCR-mediated calcium activation step. Exemplary results of this assay are shown in the lower left graph of FIG. 3. In the KCl counterscreen, cells are stimulated with 10 mM KCl instead of ATP to check for compounds that inhibit the membrane potential response by virtue of being non-specific ion channel blockers or enhancers.

[3] = tested on: GPCR-mediated calcium activation step; experiment: Calcium counterscreen (calcium sensitive dye, ATP stimulated); conditions: Homo sapiens, 10 μM compound, read-out: Calcium Counterscreen (percent inhibition)
Experimental: as §1

[4] = tested on: non-transfected, sham HEK cells; experiment: Whole-cell electrophysiological recording in sham cells
human TRPM5 [5] = molecular target: T1, human TRPM5; experiment: Whole-cell electrophysiological recording of TRPM5 current; conditions: 10 μM compound
Experimental: Standard whole-cell recordings were obtained from […] cells stably transfected with human TRPM5. Internal solution contained 135 mM CsGlutamate, 10 mM HEPES, 2 mM MgATP, 5 mM CaCl2 and 10 mM EGTA. External solution was HBSS (Gibco) buffered with 20 mM HEPES to pH 7.2. Currents were recorded with Multiclamp 700B amplifier using PClamp software; filtered at 1 kHz, sampled at 5 kHz. Holding potential was −80 mV. TRPM5 current in a single was activated by intracellular calcium dialysis (free calcium) and sampled with 200 ms ramps from −80 to 80 mV at 1 Hz. Current amplitudes were measured at −80 and 80 mV and plotted versus time. […] In essence, it appears that the compound makes the TRPM5 responsive lower or weaker Ca++ signals than is normally the case.

inhibition at 10 µM (human TRPM5 [1]) [%]	TRPM5 current stimulation by compound (human TRPM5 [5]; 30 μm calcium)	TRPM5 current in response to compound (human TRPM5 [5]; +80 mV, calcium 300 nm) [nA]	TRPM5 current activation by compound (human TRPM5 [5]; absence of calcium)	effect on TRPM5 activity (FIG. 3) (human TRPM5 [1]; 1, 3, 10 and 30 μM compound)	Compound	inhibition at 10 µM [2] [%]	inhibition at 10 µM [3] [%]	current in sham cells [4]
-73	further stimulation	> 5	no current activation	–	C=CCNC(=S)/N=c1\sc2ccccc2n1C [Example 10, 1-Allyl-3-(3-methylbenzo[d]thiazol-2-(3H)-ylidene)thiourea]	1	0	no significant current
-139	–	–	–	–	CCOC(=O)C/N=c1\sc2ccccc2n1C [Example 1, Ethyl 2-(3-Methylbenzo[d]thiazol-2(3H)-ylideneamino)acetate]	10	-18	–
-136	–	–	–	–	COc1ccccc1OCCSc1nc2ccccc2[nH]1 [Example 2, 2-(2-(2-Methoxyphenoxy)ethylthio)-1H-benzimidazole]	-3	19	–
-16	–	–	–	–	Cn1nc(C(F)(F)F)c(C(=O)Nc2ccc(C(F)(F)F)cc2)c1Cl [Example 17, 5-Chloro-1-methyl-3-(trifluoromethyl)-N-(4-(trifluoromethyl)phenyl)-1H-pyrazole-4-carboxamide]	-25	4	–
-62	–	–	–	–	Cc1csc(-c2cn(C(C)C)c(=O)n(Cc3ccccc3)c2=O)n1 [Example 12]	3	-5	–
-113	–	–	–	–	COC(=O)c1sccc1Oc1ccc([N+](=O)[O-])cn1 [Example 3]	17	11	–

Second part, the compound before the results:

Compound	inhibition at 10 µM (human TRPM5 [1]) [%]	TRPM5 current stimulation by compound (human TRPM5 [5]; 30 μm calcium)	TRPM5 current in response to compound (human TRPM5 [5]; +80 mV, calcium 300 nm) [nA]	TRPM5 current activation by compound (human TRPM5 [5]; absence of calcium)	effect on TRPM5 activity (FIG. 3) (human TRPM5 [1]; 1, 3, 10 and 30 μM compound)	inhibition at 10 µM [2] [%]	inhibition at 10 µM [3] [%]	current in sham cells [4]
COc1cccc(OC)c1OCCSc1nc2ccccc2n1CCO [Example 7, 2-(2-(2-(2,6-Dimethoxyphenoxy)ethylthio)-1H-benzimidazol-1-yl)ethanol]	-95	–	–	–	–	-4	-15	–
O=C(Nc1ccccc1)N1CCCN(c2nc(-c3ccccc3)ns2)CC1 [Example 6, N-Phenyl-4-(3-phenyl-1,2,4-thiadiazol-5-yl)-1,4-diazepane-1-carboxamide]	-98	–	–	–	–	16	-69	–
Cc1ccc(-c2cn3ncsc3n2)cc1 [Example 5, 6-p-Tolylimidazo[2,1-b][1,3,4]thiadiazole]	-100	–	–	–	–	7	23	–
N=c1sccn1CC(=O)c1cccc([N+](=O)[O-])c1 [Example 11, 2-(2-Iminothiazol-3(2H)-yl)-1-(3-nitrophenyl)ethanone]	-68	–	–	–	–	21	-12	–
CCc1ccc(-c2csc(NC(=O)c3cc(OC)cc(OC)c3)n2)cc1 [Example 14, N-(4-(4-Ethylphenyl)thiazol-2-yl)-3,5-dimethoxybenzamide]	-55	–	–	–	–	-101	10	–
CC1(C)C(c2ccccc2)=NC(c2ccccc2)=[N+]1[O-] [Example 9, 2,4-Diphenyl-5,5-dimethylimidazole-1-oxide]	-73	–	–	–	–	17	-15	–
O=c1sc2ccccc2c2c1ncn2-c1ccccc1 [Example 15, 1-Phenylthiochromeno[4,3-d]imidazol-4(1H)-one]	-48	–	–	–	–	-9	-22	–
COc1c(Cl)cccc1-c1cn2ccccc2n1 [Example 13, 2-(3-Chloro-2-methoxyphenyl)imidazo[1,2-a]pyridine]	-57	–	–	–	–	-10	9	–
CCc1nnc2nc(-c3ccc(Cl)c([N+](=O)[O-])c3)[nH]n12 [Example 4, 6-(4-Chloro-3-nitrophenyl)-3-ethyl-5H-[1,2,4]triazolo[4,3-b][1,2,4]triazole]	-101	–	–	–	–	-32	13	–
CCn1c(C)nc([N+](=O)[O-])c1Sc1ccc(Cl)cn1 [Example 8, 1-Ethyl-2-methyl-4-nitro-5-(5-chloropyridin-2-ylthio)imidazole]	-76	–	–	–	selective enhancement	7	-22	–
CN(C)CC(=O)Nc1nc(-c2ccc(Cl)cc2)cs1 [Example 16, N-(4-(4-Chlorophenyl)thiazol-2-yl)-2-(dimethylamino)acetamide]	-23	–	–	–	–	-9	-25	–
